Assay results taken from US9695155B2, “Herbicidal substituted pyrimidinyloxy benzene compounds” (E. I. DU PONT DE NEMOURS AND COMPANY, priority 2013, dated 2017).

How the values were obtained:
giant foxtail = experiment: Test A preemergence; assay type: in vivo, Setaria faberii; details: Setaria faberi, pre-emergence, 240 h, 0 to 100 scale where 0 is no effect and 100 is complete control
Outline: (§1)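 Greenhouse pot test, loam/sand soil. Formulation: non-phytotoxic solvent mix plus surfactant. Pre: directed spray onto soil after sowing. Post: plants at 1–2 leaf, 2–10 cm. Rated visually vs untreated controls at ~10 d, 0 (no effect) to 100 (complete control).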

corn = experiment: Test A preemergence; assay type: in vivo, Zea mays; details: Zea mays, pre-emergence, 240 h, 0 to 100 scale where 0 is no effect and 100 is complete control
Outline: as §1

rice = experiment: Test B flooded paddy test; assay type: in vivo, Oryza sativa; details: Oryza sativa; Flood, 250 g ai/ha; 0 to 100 scale where 0 is no effect and 100 is complete control; read-out: Plant response rating, Rice
Outline: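 Visual ratings on a 0 to 100 scale, where 100 means complete control, compared treated plants with controls after 13 to 15 days in a greenhouse. Treatment went into paddy water 3 cm deep over the soil, applied to plants at the 2-leaf stage.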

blackgrass = experiment: Test C postemergence; assay type: in vivo, Alopecurus myosuroides; details: Alopecurus myosuroides, post-emergence
Outline: (§2)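 Greenhouse herbicide screen. Pre: seeded loam/sand, sprayed at planting. Post: 1–4 leaf plants (2–18 cm) in peat-based mix. Formulation: solvent mixture + surfactant, non-phytotoxic. Readout: visual % control vs untreated, 13–15 d; dash = not tested.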

Italian ryegrass = experiment: Test C postemergence; assay type: in vivo, Lolium multiflorum
Outline: as §2

wheat, winter = experiment: Test C postemergence; assay type: in vivo, Triticum aestivum
Outline: as §2

lambsquarters = experiment: Test C postemergence; assay type: in vivo, Chenopodium album
Outline: as §2

yellow nutsedge = experiment: Test C postemergence; assay type: in vivo, Cyperus esculentus
Outline: as §2

pigweed = experiment: Test C postemergence; assay type: in vivo, Amaranthus retroflexus
Outline: as §2

ragweed = experiment: Test C postemergence; assay type: in vivo, Ambrosia elatior
Outline: as §2

wild oat = experiment: Test C postemergence; assay type: in vivo, Avena fatua
Outline: as §2

[1] = 31 g ai/ha, postemergence, visual rating, scale 0 to 100 (0 no effect, 100 complete control), 13 to 15 days

Q: How did the pest or weed control at 125 g/ha (giant foxtail; 125 g ai/ha, read-out: Plant response rating, Foxtail, Giant) turn out when `Fc1cccc(Oc2ncc(Cl)cn2)c1-n1cc(Br)cn1` [Compound 178, 2-[2-(4-bromo-1H-pyrazol-1-yl)-3-fluorophenoxy]-5-chloropyrimidine] was run?
A: Its pest or weed control at 125 g/ha is 100%.

Q: And the pest or weed control at 500 g/ha (giant foxtail; 500 g ai/ha, read-out: Foxtail, Giant plant response rating)?
A: The pest or weed control at 500 g/ha was 100%.

Q: What about the Corn plant response rating (crop injury, 0 = no effect, 100 = complete kill) at 125 g/ha (corn; 125 g ai/ha) of the same molecule?
A: The Corn plant response rating (crop injury, 0 = no effect, 100 = complete kill) at 125 g/ha was 0%.

Q: And the plant injury at 500 g/ha (corn; 500 g ai/ha, read-out: Corn plant response rating)?
A: Its plant injury at 500 g/ha is 30%.

Q: And the plant injury at 250 g/ha (rice)?
A: Its plant injury at 250 g/ha is 0%.

Q: What about the pest or weed control at 16 g/ha (blackgrass; 16 g ai/ha, postemergence, 0 is no effect, 100 is complete control, read-out: Plant response rating (0 to 100), Blackgrass) of the same molecule?
A: Its pest or weed control at 16 g/ha is 0%.

Q: What about the pest or weed control at 31 g/ha (blackgrass; 31 g ai/ha, postemergence, visual rating, scale 0 to 100 (0 no effect, 100 complete control), 13 to 15 days, read-out: Blackgrass plant response rating) of the same molecule?
A: Its pest or weed control at 31 g/ha is 5%.

Q: And the pest or weed control at 125 g/ha (blackgrass; 125 g ai/ha, postemergence, visual rating, scale 0 to 100 (0 no effect, 100 complete control), read-out: Plant response rating, Blackgrass)?
A: The pest or weed control at 125 g/ha was 60%.

Q: And the pest or weed control at 62 g/ha (blackgrass; Postemergence, 62 g ai/ha, scale 0 to 100 (0 no effect, 100 complete control), read-out: Plant response rating, Blackgrass)?
A: Its pest or weed control at 62 g/ha is 20%.

Q: What about the “Ryegrass, Italian plant response rating” value (Italian ryegrass; [1]) of the same molecule?
A: Its value is 0.

Q: What about the pest or weed control at 16 g/ha (Italian ryegrass; Lolium multiflorum, post-emergence, 16 g ai/ha, postemergence, 0 is no effect, 100 is complete control, read-out: Plant response rating (0 to 100), Ryegrass, Italian) of the same molecule?
A: The pest or weed control at 16 g/ha was 0%.

Q: And the pest or weed control at 125 g/ha (Italian ryegrass; Lolium multiflorum, post-emergence, 125 g ai/ha, postemergence, visual rating, scale 0 to 100 (0 no effect, 100 complete control), read-out: Plant response rating, Ryegrass, Italian)?
A: Its pest or weed control at 125 g/ha is 20%.

Q: What about the pest or weed control at 62 g/ha (Italian ryegrass; Lolium multiflorum, post-emergence, Postemergence, 62 g ai/ha, scale 0 to 100 (0 no effect, 100 complete control), read-out: Plant response rating, Ryegrass, Italian) of the same molecule?
A: The pest or weed control at 62 g/ha was 0%.

Q: What about the “Wheat plant response rating” value (wheat, winter; [1]) of the same molecule?
A: Its value is 0.

Q: And the plant injury at 16 g/ha (wheat, winter; Triticum aestivum, post-emergence, 16 g ai/ha, postemergence, 0 is no effect, 100 is complete control, read-out: Plant response rating (0 to 100), Wheat)?
A: The plant injury at 16 g/ha was 0%.

Q: And the plant injury at 125 g/ha (wheat, winter; Triticum aestivum, post-emergence, 125 g ai/ha, postemergence, visual rating, scale 0 to 100 (0 no effect, 100 complete control), read-out: Plant response rating, Wheat)?
A: Its plant injury at 125 g/ha is 0%.

Q: And the plant injury at 62 g/ha (wheat, winter; Triticum aestivum, post-emergence, Postemergence, 62 g ai/ha, scale 0 to 100 (0 no effect, 100 complete control), read-out: Plant response rating, Wheat)?
A: Its plant injury at 62 g/ha is 0%.

Q: And the “Lambsquarters plant response rating” value (lambsquarters; [1])?
A: Its value is 80.

Q: What about the pest or weed control at 16 g/ha (lambsquarters; Chenopodium album, post-emergence, 16 g ai/ha, postemergence, 0 is no effect, 100 is complete control, read-out: Plant response rating (0 to 100), Lambsquarters) of the same molecule?
A: Its pest or weed control at 16 g/ha is 70%.

Q: And the pest or weed control at 125 g/ha (lambsquarters; Chenopodium album, post-emergence, 125 g ai/ha, postemergence, visual rating, scale 0 to 100 (0 no effect, 100 complete control), read-out: Plant response rating, Lambsquarters)?
A: Its pest or weed control at 125 g/ha is 98%.

Q: And the pest or weed control at 62 g/ha (lambsquarters; Chenopodium album, post-emergence, Postemergence, 62 g ai/ha, scale 0 to 100 (0 no effect, 100 complete control), read-out: Plant response rating, Lambsquarters)?
A: Its pest or weed control at 62 g/ha is 85%.

Q: And the “Nutsedge, Yellow plant response rating” value (yellow nutsedge; [1])?
A: Its value is 5.

Q: And the pest or weed control at 16 g/ha (yellow nutsedge; Cyperus, post-emergence, 16 g ai/ha, postemergence, 0 is no effect, 100 is complete control, read-out: Plant response rating (0 to 100), Nutsedge, Yellow)?
A: Its pest or weed control at 16 g/ha is 5%.

Q: And the pest or weed control at 125 g/ha (yellow nutsedge; Cyperus, post-emergence, 125 g ai/ha, postemergence, visual rating, scale 0 to 100 (0 no effect, 100 complete control), read-out: Plant response rating, Nutsedge, Yellow)?
A: The pest or weed control at 125 g/ha was 10%.

Q: What about the pest or weed control at 62 g/ha (yellow nutsedge; Cyperus, post-emergence, Postemergence, 62 g ai/ha, scale 0 to 100 (0 no effect, 100 complete control), read-out: Plant response rating, Nutsedge, Yellow) of the same molecule?
A: The pest or weed control at 62 g/ha was 5%.

Q: What about the “Pigweed plant response rating” value (pigweed; [1]) of the same molecule?
A: The value was 85.

Q: What about the pest or weed control at 16 g/ha (pigweed; Amaranthus retroflexus, post-emergence, 16 g ai/ha, postemergence, 0 is no effect, 100 is complete control, read-out: Plant response rating (0 to 100), Pigweed) of the same molecule?
A: The pest or weed control at 16 g/ha was 80%.

Q: What about the pest or weed control at 125 g/ha (pigweed; Amaranthus retroflexus, post-emergence, 125 g ai/ha, postemergence, visual rating, scale 0 to 100 (0 no effect, 100 complete control), read-out: Plant response rating, Pigweed) of the same molecule?
A: Its pest or weed control at 125 g/ha is 98%.

Q: What about the pest or weed control at 62 g/ha (pigweed; Amaranthus retroflexus, post-emergence, Postemergence, 62 g ai/ha, scale 0 to 100 (0 no effect, 100 complete control), read-out: Plant response rating, Pigweed) of the same molecule?
A: The pest or weed control at 62 g/ha was 95%.

Q: And the “Ragweed plant response rating” value (ragweed; [1])?
A: The value was 55.

Q: What about the pest or weed control at 16 g/ha (ragweed; Ambrosia artemisiifolia, post-emergence, 16 g ai/ha, postemergence, 0 is no effect, 100 is complete control, read-out: Plant response rating (0 to 100), Ragweed) of the same molecule?
A: The pest or weed control at 16 g/ha was 20%.

Q: And the pest or weed control at 125 g/ha (ragweed; Ambrosia artemisiifolia, post-emergence, 125 g ai/ha, postemergence, visual rating, scale 0 to 100 (0 no effect, 100 complete control), read-out: Plant response rating, Ragweed)?
A: The pest or weed control at 125 g/ha was 65%.

Q: And the pest or weed control at 62 g/ha (ragweed; Ambrosia artemisiifolia, post-emergence, Postemergence, 62 g ai/ha, scale 0 to 100 (0 no effect, 100 complete control), read-out: Plant response rating, Ragweed)?
A: The pest or weed control at 62 g/ha was 30%.

Q: What about the “Oat, Wild plant response rating” value (wild oat; [1]) of the same molecule?
A: Its value is 0.

Q: And the pest or weed control at 16 g/ha (wild oat; Avena fatua, post-emergence, 16 g ai/ha, postemergence, 0 is no effect, 100 is complete control, read-out: Plant response rating (0 to 100), Oat, Wild)?
A: The pest or weed control at 16 g/ha was 0%.

Q: And the pest or weed control at 125 g/ha (wild oat; Avena fatua, post-emergence, 125 g ai/ha, postemergence, visual rating, scale 0 to 100 (0 no effect, 100 complete control), read-out: Plant response rating, Oat, Wild)?
A: The pest or weed control at 125 g/ha was 30%.

Q: What about the pest or weed control at 62 g/ha (wild oat; Avena fatua, post-emergence, Postemergence, 62 g ai/ha, scale 0 to 100 (0 no effect, 100 complete control), read-out: Plant response rating, Oat, Wild) of the same molecule?
A: Its pest or weed control at 62 g/ha is 10%.
